Common to all, as to assay: NCI anticancer screen, dose series, 48 h
The test system of assay [1] is T-47D breast.
Assay [2] deals with SR leukemia.
The subject of assay [3] is NCI-H460 lung.
Assay [4] concerns IGROV1 ovarian.
The test system of assay [5] is K-562 leukemia.
Assay [6] has as its system A498 renal.
Assay [7] relates to SNB-75 CNS.
The test system of assay [8] is UACC-62 melanoma.
The test system of assay [9] is ACHN renal.
Assay [10] deals with M14 melanoma.
Assay [11] relates to SK-MEL-28 melanoma.
Assay [12] deals with UO-31 renal.
Assay [13] has as its system HS 578T breast.
Assay [14] relates to DU-145 prostate.
Assay [15] deals with SN12C renal.
The test system of assay [16] is HOP-62 NSCLC.
In assay [17] the test system is MDA-N.
Assay [18] relates to BT-549 breast.
The test system of assay [19] is HOP-92 NSCLC.
The test system of assay [20] is SF-539 CNS.

Structures are written as SMILES.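 48-hour exposure; five concentrations; linearly interpolated endpoints. At the TGI there is no net growth.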

With `COC(=O)C1CC2CCC1(O[Si](C(C)C)(C(C)C)C(C)C)C(O)C2` (stereo not given), the TGI in assay [1] is 76.7 µM; in assay [2], 26.6 µM; in [3] it was above 100 µM; in assay [4], 94 µM; in assay [5], 28.9 µM; in assay [6], above 100 µM. For the same compound, the TGI in assay [7] was above 100 µM; in [8] it was above 100 µM; in assay [9], 80.4 µM; in assay [10], 32.7 µM; in [11] it was 44.9 µM; in [12], 30.2 µM. Besides, the TGI in assay [13] turned out to be 99.6 µM; in assay [14], 34.9 µM; in assay [15] it was 34.5 µM; in [16], 44.1 µM; in [17], 57.4 µM; in assay [18], 79.3 µM.

Consider `CC(=O)N1C(OC(C)C)CC(C)N1c1ccccc1` (stereo not given), for which the TGI in [1], in assay [2], in assay [3], in [4], in assay [5] and in assay [19] was above 10 µM throughout. Also, the TGI in assay [7], in assay [9], in assay [10], in assay [11], in assay [13] and in assay [14] was above 10 µM each time. Besides, the TGI in assay [15], in [20], in assay [16], in assay [17] and in assay [18] was above 10 µM in each case.

As for `CN1CC[C@]23c4c5ccc(O)c4O[C@H]2C(O)CC[C@@]3(O)[C@H]1C5` (stereo not given in full), the TGI in assay [1], in assay [2], in [4], in [19], in assay [6] and in assay [8] was above 100 µM each time. Further, the TGI in [9], in assay [10], in [11], in assay [12], in assay [13] and in assay [14] was above 100 µM throughout. For the same compound, the TGI in assay [15], in assay [20], in [16], in assay [17] and in assay [18] was above 100 µM in each case.

Turning to `CC1(C)CC(C2=NCCO2)CC(C)(C)N1`, the TGI in assay [1], in [2], in assay [4], in assay [5], in assay [19] and in [6] was above 100 µM each time. The TGI in [7], in assay [8], in assay [9], in [10], in assay [11] and in [12] was above 100 µM in each case. The TGI in assay [13], in assay [14], in assay [15], in assay [20], in assay [16] and in assay [17] was above 100 µM throughout. In assay [18], this compound showed a TGI above 100 µM.

On to `COc1cc(C2=C(c3cc(OC)c4ccccc4c3OC)C(=O)c3ccccc3C2=O)c(OC)c2ccccc12`, for which the TGI in assay [1], in assay [2], in assay [3], in assay [4], in assay [19] and in [6] was above 100 µM throughout. Moreover, the TGI in assay [7], in assay [8], in assay [9], in [10], in assay [11] and in assay [12] was above 100 µM in each case. In addition, the TGI in assay [13], in assay [14], in [15], in [20], in assay [16] and in assay [17] was above 100 µM throughout. The same compound displayed a TGI in assay [18] above 100 µM.

For the compound `O=[N+]([O-])C(=C(Nc1ccccc1)Nc1ccccc1)/C(Cl)=C(\Cl)[N+](=O)[O-]`, the TGI was 7.43 µM in [1]; above 100 µM in assay [2]; 53.7 µM in assay [3]; above 100 µM in assay [5]; 46.2 µM in assay [6]; 22.4 µM in assay [7]. In addition, the TGI in assay [8] was found to be 18.7 µM; in assay [9], 7.12 µM; in [10], 16.8 µM; in [11], 16.3 µM; in assay [12], 8.21 µM; in [13], 8.74 µM. The TGI in assay [14] turned out to be 8.92 µM; in [15] it was 7.77 µM; in assay [20] it was 4.15 µM; in assay [16], 26.4 µM; in assay [17] it was 10.5 µM; in assay [18] it was 13.7 µM.

As to `Cc1ccc(Cc2n[nH]c(=O)n2Nc2ccccc2)cc1`, the TGI in assay [1], in assay [2], in assay [3], in assay [4], in [5] and in assay [19] was above 100 µM in each case. In addition, the TGI in assay [6], in [8], in [9], in assay [11], in assay [12] and in [13] was above 100 µM in each case. The TGI in assay [14], in assay [15], in [20], in assay [16], in [17] and in [18] was above 100 µM each time.

As for `CN1CCc2c3n(c4cc(Br)ccc24)[C@H](O)CCCC31` (stereo not given in full), the TGI in assay [1] is above 10 µM; in assay [2], 4.05 µM; in [3], 2.97 µM; in assay [4], above 10 µM; in [5], 1.88 µM; in assay [19], above 9.12 µM. Further, the TGI in assay [6] was above 10 µM; in [7], 5.83 µM; in assay [9] it was above 10 µM; in assay [10] it was 3.24 µM; in assay [11], 3.19 µM; in assay [12], above 10 µM. Further, the TGI was 4.57 µM in assay [13]; above 10 µM in assay [14]; above 10 µM in assay [15]; 3.5 µM in assay [20]; above 10 µM in assay [16]; 3.24 µM in [17]. The same compound yielded a TGI in assay [18] above 10 µM.

The values above are taken from PubChem BioAssay (NCI).
